{
  "source": "ChEMBL document CHEMBL3526157",
  "about": "“Unique metabolic pathway of [(14)C]lenvatinib after oral administration to male cynomolgus monkey” (Drug Metab Dispos, 2012)",
  "key": {"Cynomolgus monkey [1]": {"tested_on": "Cynomolgus monkey", "test": "Drug retention time in cynomolgus monkey treated with 30 mg/kg, po of [14C]lenvatinib administered on day 1, 2 and 4 by radio-LC/MS analysis", "type": "ADME, organism-based, Macaca fascicularis", "set-up": "dose 30 mg/kg, route oral", "conditions": "in vivo"}, "Cynomolgus monkey [2]": {"tested_on": "Cynomolgus monkey", "test": "Drug metabolism in cynomolgus monkey treated with 30 mg/kg, po of [14C]lenvatinib administered on day 1, 2 and 4 by radio-LC/MS analysis", "type": "ADME, organism-based, Macaca fascicularis", "set-up": "dose 30 mg/kg, route oral", "conditions": "in vivo"}, "[3]": {"test": "Drug metabolism in Sprague-Dawley rat liver S9 fraction treated with 50 uM of lenvatinib up to 60 mins by HPLC analysis in presence of GSH and absence of NADPH", "conditions": "s9, 1 h"}, "[4]": {"test": "Drug metabolism in human liver S9 fraction treated with 50 uM of lenvatinib up to 120 mins by HPLC analysis in presence of GSH and absence of NADPH", "type": "ADME", "conditions": "s9, 2 h"}, "[5]": {"test": "Drug metabolism in cynomolgus monkey liver S9 fraction treated with 50 uM of lenvatinib up to 120 mins by HPLC analysis in presence of GSH and absence of NADPH", "type": "ADME, Macaca fascicularis", "conditions": "s9, 2 h"}, "[6]": {"test": "Drug metabolism in cynomolgus monkey liver S9 fraction treated with 50 uM of lenvatinib up to 120 mins by HPLC analysis in presence of GSH and NADPH", "type": "ADME, subcellular, Macaca fascicularis", "conditions": "s9, 2 h"}, "[7]": {"test": "Drug metabolism in human liver S9 fraction treated with 50 uM of lenvatinib up to 120 mins by HPLC analysis in presence of GSH and NADPH", "type": "ADME, subcellular", "conditions": "s9, 2 h"}, "[8]": {"test": "Drug metabolism in Sprague-Dawley rat liver S9 fraction treated with 50 uM of lenvatinib up to 60 mins by HPLC analysis in presence of GSH and NADPH", "conditions": "s9, 1 h"}},
  "data": [
    {"smiles": "COc1cc2nccc(N[C@@H](CSSC[C@H](Nc3ccnc4cc(OC)c(C(N)=O)cc34)C(=O)NCC(=O)O)C(=O)O)c2cc1C(N)=O", "values": [
      {"measurement": "Retention_time", "setting": "Cynomolgus monkey [1]", "result": 14.1, "unit": "min"},
      {"measurement": "Drug metabolism", "setting": "Cynomolgus monkey [2]", "result": "metabolite_detected"}
    ]},
    {"smiles": "COc1cc2nccc(N[C@@H](CSSC[C@H](Nc3ccnc4cc(OC)c(C(N)=O)cc34)C(=O)O)C(=O)O)c2cc1C(N)=O", "values": [
      {"measurement": "Retention_time", "setting": "Cynomolgus monkey [1]", "result": 13.5, "unit": "min"},
      {"measurement": "Drug metabolism", "setting": "Cynomolgus monkey [2]", "result": "metabolite_detected"}
    ]},
    {"smiles": "COc1cc2nccc(SC[C@H](NC(=O)CC[C@H](N)C(=O)O)C(=O)NCC(=O)O)c2cc1C(N)=O", "values": [
      {"measurement": "Retention_time", "setting": "Cynomolgus monkey [1]", "result": 13.1, "unit": "min"},
      {"measurement": "Drug metabolism", "setting": "[3]", "result": "metabolite_detected"},
      {"measurement": "Drug metabolism", "setting": "[4]", "result": "metabolite_detected"},
      {"measurement": "Drug metabolism", "setting": "Cynomolgus monkey [2]", "result": "metabolite_detected"},
      {"measurement": "Drug metabolism", "setting": "[5]", "result": "metabolite_detected"},
      {"measurement": "Drug metabolism", "setting": "[6]", "result": "metabolite_detected"},
      {"measurement": "Drug metabolism", "setting": "[7]", "result": "metabolite_detected"},
      {"measurement": "Drug metabolism", "setting": "[8]", "result": "metabolite_detected"}
    ]},
    {"smiles": "COc1cc2nccc(N[C@@H](CS)C(=O)O)c2cc1C(N)=O", "values": [
      {"measurement": "Retention_time", "setting": "Cynomolgus monkey [1]", "result": 14.5, "unit": "min"},
      {"measurement": "Drug metabolism", "setting": "Cynomolgus monkey [2]", "result": "metabolite_detected"}
    ]}
  ]
}
